Source: patent US12663425B2, “Delta-2-tubulin as a biomarker and therapeutic target for peripheral neuropathy” (THE TRUSTEES OF COLUMBIA UNIVERSITY IN THE CITY OF NEW YORK, priority 2017, dated 2026)

Legend:
[1] = Dynamic test, plantar test and electrophysiological tests in rats chronically treated with bortezomib; type: in vivo, female Wistar rats; details: chronic: 0.2 mg/kg, three times per week, 8 weeks
Method: FIG. 1A-1D. Chronic doses of bortezomib affect animal behavior and nerve function. (A) Hind-paw withdrawal response to mechanical stimulus (10-50 g). (B) Plantar withdrawal latency response to heat source (infra-red light). Dynamic and plantar tests were performed before (baseline value), after 4-week and at the end point of treatment with Bortezomib. Data are expressed as mean values±SD, n animals=12. (C, D) Caudal and digital nerve conduction velocity (NCV) and amplitude measured in rats treated chronically with Bortezomib. n=8-10 per group; *p<0.05 compared to control.
To determine the effects of bortezomib on the post-translation modifications of tubulin, female Wistar rats were treated with single or multiple administrations pf bortezomib (5 rats for each treatment). Acute treatment included a single intravenous administration of bortezomib at a concentration of 0.2 mg/kg. Chronically treated rats were treated with bortezomib for a total of 8 weeks, with administration of bortezomib three times per week at a concentration of 0.2 mg/kg. […] Certain post-translation modifications of α-tubulin, e.g., acetylation, are reduced in dorsal root ganglions neurons (DRGs) and sural nerves (SNs) from rats chronically treated with bortezomib (FIG. 2) and in rats acutely treated with bortezomib (FIG. 3).

delta-2-tubulin [2] = assay: Delta-2-tubulin levels in cultured neurons (western blot, immunofluorescence); type: cell-based; details: for delta-2-tubulin expression: cultured hippocampal and DRG neurons (FIG. 6)
Method: FIG. 6. Bortezomib induces delta-2-tubulin in DRG neurons as shown by western blot analysis of delta-2-tubulin levels from whole cell lysates of adult DRG neurons treated with Bortezomib and immunofluorescence of delta-2-tubulin in cultured DRG neurons treated with Bortezomib.
(§1) FIG. 7A-7D. Bortezomib induces delta-2-tubulin at the onset of axonal degeneration. (A) Representative immunofluorescence of D2 and βIII-tub staining in DRG neurons treated with 100 nM of Bortezomib for the indicated times. Bar, 50 μm. (B) Ratio analysis of D2/βIII-tubulin levels measured by immunofluorescence of fixed cells treated as in A. **, p≤0.01, ****, p≤0.0001 by t-test (unpaired, two-tailed). […] Data are mean values±SEM from 3 experiments. (D) Number of retraction bulbs per field in DRG neurons treated with 100 nM of Bortezomib for the indicated times. **, p≤0.01.
FIG. 12. (A) Immunoblot of D2 levels from whole cell lysates of adult DRG neurons (14 DIV) treated with increasing doses of Bortezomib for the indicated times. (B) IB of D2 levels in the MT pellet (P) and soluble tubulin (S) fractions isolated from adult DRG neurons (8 DIV) treated with 100 nM of Bortezomib for the indicated times.
(§2) Peripheral neurons from patients suffering from CIPN were analyzed for delta-2-tubulin expression. […] In addition.

delta-2-tubulin [3] = assay: Quantitative immunofluorescence of tubulin post-translational modifications in DRG and sural nerve of treated rats; type: in vivo, female Wistar rats
Method: FIG. 2. Immunofluorescence analysis of selected α-tubulin post-translational modifications in neuronal tissue from chronically treated rats. Relative tubulin post-translational modifications levels measured by quantitative immunofluorescence in randomly selected dorsal root ganglion cell bodies (DRG) and sural nerve (SN) from rats (4 per group) treated with chronic (0.2 mg/kg, 3× week for 8 weeks) doses of Bortezomib. Data are mean values±SEM. ****, p≤0.0001; ***, p≤0.001; **, p≤0.01; *, p≤0.05 by ANOVA (in red,) or unpaired, two-tailed t-test (in black).
FIG. 3A-3C. […] (A) Representative immunofluorescence staining of DRG isolated from rats acutely treated with Bortezomib. (B) Relative tubulin post-translational modifications levels measured by quantitative immunofluorescence in randomly selected DRG and SN from rats (4 per group) treated with acute (i.v. 0.2 mg/kg; 24 hr) doses of Bortezomib. Data are mean values±SEM, ****, p≤0.0001; ***, p≤0.001; **, p≤0.01; *, p≤0.05 by ANOVA (A in red,) or unpaired, two-tailed t-test (A in black). (C) Schematic of the enzymes involved in D2 generation.
FIG. 13A-13E. […] (A) Immunofluorescence staining of Peripherin (smaller unmyelinated C-fibers) or (B) NF200 (large myelinated A-β fibers)(C) TrkC (proprioceptive)(D) TrkA (nociceptive) in DRG L4-L5 dissected from rats treated with Bortezomib for 24 hr. (E) Correlation between peripherin, NF200, TrkC, TrkA and D2 intensity values in randomly selected DRG cell bodies was calculated by using Pearson coefficient (r). Scale bar, 50 μm.
To determine the effects of bortezomib on the post-translation modifications of tubulin, female Wistar rats were treated with single or multiple administrations pf bortezomib (5 rats for each treatment). Acute treatment included a single intravenous administration of bortezomib at a concentration of 0.2 mg/kg. Chronically treated rats were treated with bortezomib for a total of 8 weeks, with administration of bortezomib three times per week at a concentration of 0.2 mg/kg.
To determine the effect of bortezomib on tubulin expression, DRGs were analyzed for delta-2-tubulin expression. […] Further analysis of other unrelated chemotherapy-induced peripheral neuropathy (CIPN) drugs was performed to determine their effect on delta-2-tubulin expression levels. […] Additional experiments were performed to determine whether DRGs with different sensory modalities and diameters are preferentially affected by bortezomib treatment.

DRG neurons [4] = assay: Mitochondrial motility in DRG neurons (mito-DsRed kymographs); type: cell-based; details: 100 nM for 24 hr (FIG. 15D)
Method: FIG. 15A-15F. D2 accumulation is necessary and sufficient to affect mitochondria motility. (A) Representative kymographs of mitochondrial motility in DRG neurons (7 DIV) infected for 4 days with PVLX-EGFP-D2- or WT-Tubulin lentivirus prior to 72 hr infection with mito-DsRed lentivirus. (B) Quantification of the percentage of moving mitochondria as in A. Videos (10 s/frame for 30 min). (C, F) Percentage of different mitochondria movement states, Dynamic Pause (DP), Stationary (STA), Anterograde Running (AR), Retrograde Running (RR) (1 s/frame for 3 min, C), (10 s/frame for 30 min, F). (D) Representative kymographs of mitochondrial motility in DRG neurons (7 DIV) infected for 4 days with ShCCP1 or shControl lentivirus prior 72 hr infection with mito-DsRed lentivirus followed by Bortezomib treatment (100 nM for 24 hr). (E) Quantification of the percentage of moving mitochondria as in D. Videos (10 s/frame for 30 min). […]
To determine the effect bortezomib and delta-2 tubulin accumulation have on mitochondrial motility, DRG neurons were transduced with lentivirus to express wild-type tubulin or delta-2 tubulin. […] Expression of delta-2 tubulin affected every state of mitochondrial movement analyzed except for the stationary state (STA) (FIG. 15C). The effect of CCP1 knockdown on mitochondrial movement in the presence of bortezomib was also analyzed.

[5] = test system: tubulin tyrosine ligase (TTL); assay: Immunoblot of tubulin tyrosine ligase (TTL) and D2 levels in adult DRG neurons; type: cell-based; details: adult DRG neurons 14 DIV, 100 nM (FIG. 11)
Method: FIG. 11. Immunoblot of tubulin tyrosine ligase (TTL) and D2 levels in adult DRG neurons (14 DIV) treated with 100 nM Bortezomib.
(§3) Microtubule dynamics were analyzed in DRG neurons following bortezomib treatment. […] TTL binds αβ-tubulin dimer and catalyzes the post-translational addition of a tyrosine to the C-terminal end of detyrosinated α-tubulin. Song et al., J. of Bio. Chem. 290(23):14765-14775 (2015).

DRG neurons [6] = assay: EGFP-EB3 analysis of microtubule dynamics in DRG neurons; type: cell-based; details: DRG neurons 7 DIV, 100 nM, prior to delta-2-tubulin induction (FIG. 8)
Method: FIG. 8. Bortezomib induces MT stability without affecting MT dynamics prior to D2 induction. EGFP-EB3 time course analysis of MT dynamics parameters in DRG neurons (7 days in vitro (DIV)) treated with 100 nM Bortezomib for the indicated times. Data were pulled from up to 300 comets and 12-15 neurites for each group and analyzed by one-way ANOVA, multiple comparison. (NS, non-significant).
as §3

DRG neurons [7] = assay: Axonal degeneration (degeneration index) in cultured DRG neurons; type: cell-based; details: DRG neurons treated with 100 nM for the indicated times (FIG. 7C)
Method: as §1
FIG. 9A-9E. Delta-2-tubulin accumulation is sufficient to drive axonopathy. (A) Schematic of the enzymes involved in D2 generation. (B) Immunoblot of tubulin tyrosine ligase (TTL), D2 and tyrosinated (TYR) tubulin levels in adult DRG neurons (14 DIV) silenced of TTL expression at 7 DIV. (C) Representative immunofluorescence images of DRG neurons as in B. (D) Axonal degeneration and number of retraction bulbs per field in DRG neurons treated as in B. (E) Axonal degeneration in DRG neurons that overexpress D2-(PVLX-EGFP-D2Tub) or WT-tubulin (PVLX-EGFP-Tub). Data are mean values±SEM from 3 experiments. ***, p≤0.001; **, p≤0.01, *p≤0.05 by t-test (unpaired, two-tailed). Bar, […].
FIG. 14A-14D. […]
Peripheral neurons from patients suffering from CIPN were analyzed for delta-2-tubulin expression. […]

delta-2-tubulin [8] = assay: Delta-2-tubulin in sural nerve biopsy of CIPN patients (immunofluorescence, immunoblot); type: in vivo; details: CIPN patients (FIG. 5)
Source text: FIG. 5A-5C. Bortezomib induces delta-2-tubulin in CIPN patients. (A) Representative immunofluorescence staining of SN isolated from a patient affected by CIPN. (B) Ratio analysis of D2/βIII-tubulin levels measured by immunofluorescence of fixed tissue from one SN biopsy. Data are mean values from 3 sections±SEM, ****, p<0.0001 by t-test (unpaired, two-tailed). (C) Immunoblot of D2 levels in whole cell lysates from one SN biopsy. Tyr, tyrosinated tubulin.
as §2

| Compound | animal behavior and nerve function (dynamic test, plantar test, electrophysiological tests) [1] | delta-2-tubulin induction relative to axonal degeneration (degeneration index) (delta-2-tubulin [2]; DRG neurons, 100 nM, time course (FIG. 7)) | delta-2-tubulin expression (delta-2-tubulin [2]) | delta-2-tubulin in proprioceptive and nociceptive DRG neurons (delta-2-tubulin [3]; DRG L4-L5 of rats treated for 24 hr (FIG. 13)) | delta-2-tubulin in DRG cell bodies, compared to βIII-tubulin and control (delta-2-tubulin [3]; acute treatment, single i.v. 0.2 mg/kg, 24 hr (FIG. 3)) | delta-2-tubulin in DRG cell bodies, compared to βIII-tubulin and control (delta-2-tubulin [3]; chronic treatment, 0.2 mg/kg 3x week for 8 weeks (FIG. 2)) | post-translation modifications of α-tubulin, e.g., acetylation, in DRGs and SNs (delta-2-tubulin [3]; rats acutely treated, single i.v. 0.2 mg/kg, 24 hr (FIG. 3)) | post-translation modifications of α-tubulin, e.g., acetylation, in DRGs and SNs (delta-2-tubulin [3]; rats chronically treated, 0.2 mg/kg 3x week for 8 weeks (FIG. 2)) | movement of mitochondria (DRG neurons [4]) | TTL expression, western blot [5] | delta-2-tubulin, western blot [5] | microtubule dynamics (rescue/nucleation frequency, catastrophe frequency, comet density, growth rate) (DRG neurons [6]) | axonopathy (DRG neurons [7]) | delta-2-tubulin expression in peripheral neurons, e.g., sural nerve (delta-2-tubulin [8]) | delta-2-tubulin in DRG neurons compared to control (delta-2-tubulin [3]; unrelated CIPN drugs, acute (FIG. 4)) |
| --- | --- | --- | --- | --- | --- | --- | --- | --- | --- | --- | --- | --- | --- | --- | --- |
| CC(C)C[C@H](NC(=O)[C@H](Cc1ccccc1)NC(=O)c1cnccn1)B(O)O [bortezomib] | affected animal behavior and nerve function | induced delta-2-tubulin at the onset of axonal degeneration | increase in delta-2-tubulin expression | accumulate delta-2-tubulin | increased | increased | reduced | reduced | greatly affected the movement of mitochondria | reduction of TTL expression | accumulation of delta-2-tubulin | does not affect microtubule dynamics | Time dependent increase of axonopathy | induced delta-2-tubulin expression |  |
| CC(=O)O[C@H]1C(=O)[C@@]2(C)[C@H]([C@H](OC(=O)c3ccccc3)[C@]3(O)C[C@H](OC(=O)[C@H](O)[C@@H](NC(=O)c4ccccc4)c4ccccc4)C(C)=C1C3(C)C)[C@]1(OC(C)=O)CO[C@@H]1C[C@@H]2O [paclitaxel] |  |  | increase in delta-2-tubulin expression |  |  |  |  |  |  |  |  |  |  |  | acutely accumulated delta-2-tubulin |
